Reference: patent US20080045559A1, “TOCOPHEROL-MODIFIED THERAPEUTIC DRUG COMPOUNDS” (SONUS PHARMACEUTICALS, INC., priority 2003, published 2008)
Where a name gives a salt, the structure may show the parent alone. Read-outs that look alike come from different tables or passages of the source. Marks after values point to notes of the source that are not given here.

Assays:
[1] = Solubility to saturation in various solvents, supernatant analysed by HPLC; type: physicochemical
Description: Compounds were dissolved in each solvent under constant stirring and temperature to saturation. The resulting solutions were centrifuged and the supernatant was analyzed by high performance liquid chromatography (HPLC).

[2] = In vitro stability of the lactone form in the presence of human serum albumin; type: in vitro ADME; conditions: saline buffered solution 10 mM pH 7.4, 4% human serum albumin, 37° C.; emulsions vs camptothecin in DMSO; FIG. 12
Text: High performance liquid chromatography with fluorescence detection was used to analyze the decrease in the concentration of the lactone form over time.

HCT-116 (COLON) [3] = assay: In vitro cytotoxicity GI50, Example 17; type: cell-based; conditions: Homo sapiens
Description: (§1) The cells were in contact with varying concentrations of the test article for a period of 48 hours. At the end of 48 hours, staining with ALAMAR BLUE was performed to determine the number of viable cells and calculate the degree of cellular growth inhibition as compared to a control group.

HCT-15 (COLON) [4] = assay: In vitro cytotoxicity GI50, Example 17; type: cell-based; conditions: Homo sapiens
Description: as §1

HT29 (COLON) = assay: In vitro cytotoxicity GI50, Example 17; type: cell-based; conditions: Homo sapiens
Description: as §1

MCF-7 (BREAST) = assay: In vitro cytotoxicity GI50, Example 17; type: cell-based; conditions: Homo sapiens, MCF7, emulsion formulations, 48 hours, ALAMAR BLUE
Description: as §1

NCI-H460 (NSCLC) = assay: In vitro cytotoxicity GI50, Example 17; type: cell-based; conditions: Homo sapiens
Description: as §1

OVCAR-3 (OVARIAN) = assay: In vitro cytotoxicity GI50, Example 17; type: cell-based; conditions: emulsion formulations, 48 hours, ALAMAR BLUE
Description: as §1

[5] = Pharmacokinetics after intravenous bolus in rats; type: in vivo; conditions: Sprague-Dawley, rat, intravenous bolus of emulsion, approximately 14 mg/kg, plasma; for half-life: read-out: t1/2 (elimination) (converted)
Description: Blood samples were collected for up to 120 hours post dose via the jugular vein. […] A noncompartmental analysis was carried out using WinNonlin (v 4.1).

HT-29 human tumor cells = assay: HT-29 human tumor xenograft; type: in vivo, Athymic mice; conditions: for Number of animals with no measurable tumor on Day 55 / Tumor Growth Delay (T-C) / Tumor Growth Inhibition (% T/C): 15 mg/kg i.v.; for Mice with no measurable tumor: fifty-five days after dose initiation
Description: HT-29 Human Tumor Xenograft. Athymic mice were subcutaneously implanted with 30-40 mg tumor fragments using 12-gauge trocar needles. A sufficient number of mice were implanted with fragments so tumors in narrow weight range (100-200 mg) were selected for the trial on staging day (SD). The animals selected with tumors in the proper size range were randomized into six groups of 10 animals and intravenously administered the following test compounds:
In both xenograph studies, animal body weights and tumors were measured twice weekly following the initiation of dosing. The tumor measurements were performed using a caliper (millimeters); the tumor volume was calculated based on the formula: (Length×width^2)/2=Volume(mm^3).

H460 (NSCLC) = assay: In vitro cytotoxicity GI50, Example 48; type: cell-based; conditions: Homo sapiens, NCI-H460; H460; Alamar Blue or Sulfarhodamine B; read-out: GI50
HCT-15 (COLON) [6] = assay: In vitro cytotoxicity GI50, Example 48; type: cell-based; conditions: Homo sapiens, Alamar Blue or Sulfarhodamine B
HCT-116 (COLON) [7] = assay: In vitro cytotoxicity GI50, Example 48; type: cell-based; conditions: Homo sapiens, HCT-116, HCT-116; Alamar Blue or Sulfarhodamine B
Description: The study was performed using either Alamar Blue or Sulfarhodamine B assays.

SKOV-3 (OVARIAN) = assay: In vitro cytotoxicity GI50, Example 48; type: cell-based; conditions: Homo sapiens, SK-OV-3, Alamar Blue or Sulfarhodamine B
HT-29 (COLON) = assay: In vitro cytotoxicity GI50, Example 48; type: cell-based; conditions: Homo sapiens, Alamar Blue or Sulfarhodamine B
[8] = rat, in vivo, iv; cited from earlier work

Compound: CC[C@@]1(OC(=O)CCC(=O)Oc2c(C)c(C)c3c(c2C)CC[C@@](C)(CCC[C@H](C)CCC[C@H](C)CCCC(C)C)O3)C(=O)OCc2c1cc1n(c2=O)Cc2cc3ccccc3nc2-1 [VESA-CPT, Butanedioic acid, (2R)-3,4-dihydro-2,5,7,8-tetramethyl-2-[(4R,8R)-4,8,12-trimethyltridecyl]-2H-1-benzopyran-6-yl (4S)-4-ethyl-3,4,12,14-tetrahydro-3,14-dioxo-1H-pyrano[3′,4′:6,7]indolizino[1,2-b]quinolin-4-yl ester]
- Solubility ([1]; Acetonitrile, Room Temp.): 49.6 mg/g
- Solubility ([1]; Captex 300 EP, Room Temp.): 96.7 mg/g
- Solubility ([1]; Chloroform, Room Temp.): >372.5 mg/g
- Solubility ([1]; DMSO, Room Temp.): >255.5 mg/g
- Solubility ([1]; Ethanol Denatured, Room Temp.): 57.1 mg/g
- Solubility ([1]; Glycerin USP/EP/BP/JP, Room Temp.): 2.541 mg/g
- Solubility ([1]; Methanol, Room Temp.): 14.4 mg/g
- Solubility ([1]; Methylene dichloride, Room Temp.): >336.5 mg/g
- Solubility ([1]; PEG-400 NF, Room Temp.): 17.5 mg/g
- Solubility ([1]; Propylene Glycol, USP, Room Temp.): 0.4633 mg/g
- Solubility ([1]; Soybean Oil USP, Room Temp.): 45.2 mg/g
- Solubility ([1]; TPGS, 65 °C): >133.3 mg/g
- Solubility ([1]; Tween 80 NF, 65 → Room Temp.): 48.3 mg/g
- Solubility ([1]; Vitamin E USP/NF, 65 °C): >288.3 mg/g
- Stability of the lactone form [2]: greater than that of camptothecin
- GI50 (HCT-116 (COLON) [3]; HCT-116, 48 h): 449 nM
- GI50 (HCT-15 (COLON) [4]; HCT-15, 48 h): 20000 nM
- GI50 (HT29 (COLON); HT-29, 48 h): 434 nM
- GI50 (MCF-7 (BREAST)): 325 nM
- GI50 (NCI-H460 (NSCLC); NCI-H460, 48 h): 43 nM
- GI50 (result in words) (OVCAR-3 (OVARIAN)): Poor
- MRT ([5]; in vivo): 9.4 h
- clearance ([5]; in vivo): 0.135 mL/min/kg
- half-life ([5]; in vivo): 29.1 h
- Number of animals with no measurable tumor on Day 55 (HT-29 human tumor cells; q1dx5 (2 weeks)): 0/10
- Tumor Growth Delay (T-C) (HT-29 human tumor cells; q1dx5 (2 weeks)): 8.5 days
- Tumor Growth Inhibition (% T/C) (HT-29 human tumor cells; q1dx5 (2 weeks), Day 55): 79 % T/C
- Number of animals with no measurable tumor on Day 55 (HT-29 human tumor cells; q3dx10): 0/10
- Tumor Growth Delay (T-C) (HT-29 human tumor cells; q3dx10): 0 days

Compound: CC[C@@]1(O)C(=O)OCc2c1cc1n(c2=O)Cc2cc3cc(OC(=O)CCC(=O)Oc4c(C)c(C)c5c(c4C)CC[C@@](C)(CCC[C@H](C)CCC[C@H](C)CCCC(C)C)O5)ccc3nc2-1 [VESA-10-HO-CPT, Butanedioic acid, (2R)-3,4-dihydro-2,5,7,8-tetramethyl-2-[(4R,8R)-4,8,12-trimethyltridecyl]-2H-1-benzopyran-6-yl (4S)-4-ethyl-3,4,12,14-tetrahydro-4-hydroxy-3,14-dioxo-1H-pyrano[3′,4′:6,7]indolizino[1,2-b]quinolin-9-yl ester]
- GI50 (H460 (NSCLC)): 155 nM
- GI50 (HCT-15 (COLON) [6]): 1290 nM
- GI50 (HCT-116 (COLON) [7]): 186 nM
- GI50 (SKOV-3 (OVARIAN)): 97.7 nM

Compound: CCc1c2c(nc3ccc(OC(=O)CC4(CC(=O)Oc5c(C)c(C)c6c(c5C)CC[C@@](C)(CCC[C@H](C)CCC[C@H](C)CCCC(C)C)O6)CCCC4)cc13)-c1cc3c(c(=O)n1C2)COC(=O)[C@]3(O)CC [d-α-Tocopherol-3,3-tetramethyleneglutarate-7-ethyl-10-hydroxycamptothecin]
- GI50 (H460 (NSCLC)): 560 nM
- GI50 (HCT-116 (COLON) [7]): 214 nM
- GI50 (HT-29 (COLON)): 48 nM

Compound: CCc1c2c(nc3ccc(OC(=O)CCC(=O)Oc4c(C)c(C)c5c(c4C)CC[C@@](C)(CCC[C@H](C)CCC[C@H](C)CCCC(C)C)O5)cc13)-c1cc3c(c(=O)n1C2)COC(=O)[C@]3(O)CC [VESA-SN38, Butanedioic acid, (4S)-4,11-diethyl-3,4,12,14-tetrahydro-4-hydroxy-3,14-dioxo-1H-pyrano[3′,4′:6,7]indolizino[1,2-b]quinolin-9-yl (2R)-3,4-dihydro-2,5,7,8-tetramethyl-2-[(4R,8R)-4,8,12-trimethyltridecyl]-2H-1-benzopyran-6-yl ester]
- Stability of the lactone form [2]: greater than that of camptothecin
- GI50 (HCT-116 (COLON) [3]; HCT-116, emulsion formulations, 48 hours, ALAMAR BLUE, read-out: GI50): 119 nM
- GI50 (HCT-15 (COLON) [4]; HCT-15, emulsion formulations, 48 hours, ALAMAR BLUE, read-out: GI50): 99 nM
- GI50 (HT29 (COLON); HT-29, HT29, emulsion formulations, 48 hours, ALAMAR BLUE, read-out: GI50): 91 nM
- GI50 (NCI-H460 (NSCLC); NCI-H460, emulsion formulations, 48 hours, ALAMAR BLUE, read-out: GI50): 4 nM
- GI50 (OVCAR-3 (OVARIAN); Homo sapiens): 83 nM
- MRT [5]: 5.15 h
- clearance [5]: 0.112 mL/min/kg
- half-life [5]: 3.49 h
- Number of animals with no measurable tumor on Day 55 (HT-29 human tumor cells; q1dx5 (2 weeks)): 4/10
- Tumor Growth Delay (T-C) (HT-29 human tumor cells; q1dx5 (2 weeks)): >28* days
- Tumor Growth Inhibition (% T/C) (HT-29 human tumor cells; q1dx5 (2 weeks), Day 55): 4 % T/C
- Number of animals with no measurable tumor on Day 55 (HT-29 human tumor cells; q3dx10): 8/10
- Tumor Growth Delay (T-C) (HT-29 human tumor cells; q3dx10): >28* days
- Tumor Growth Inhibition (% T/C) (HT-29 human tumor cells; q3dx10, Day 55): 2 % T/C
- Mice with no measurable tumor (HT-29 human tumor cells; q1dx5): 40%
- Mice with no measurable tumor (HT-29 human tumor cells; q3dx10): 80%

Compound: CCc1c2c(nc3ccc(OC(=O)N4CCC(N5CCCCC5)CC4)cc13)-c1cc3c(c(=O)n1C2)COC(=O)[C@]3(O)CC [Irinotecan, irinotecan hydrochloride]
- MRT [8]: 1.43 h
